# Assay results: the supplement of paper PMC13380429
# Assays:
# Details in all cases: 72 h
# Vero E6 [1] = assay: relative viability EC50 (midpoint between 100% and the lowest measured viability); higher = less toxic
# Caco-2 [2] = assay: as above
# HepG2 [3] = assay: as above
# U2OS [4] = assay: as above
# Calu-3 [5] = assay: as above
# Vero E6 [6] = assay: drug sensitivity score (DSS) for viability; higher = more toxic; extreme values may be limits of the assay
# Caco-2 [7] = assay: as above
# HepG2 [8] = assay: as above
# U2OS [9] = assay: as above
# Calu-3 [10] = assay: as above
# Vero E6 [11] = assay: cell viability relative to DMSO; higher = less toxic
# Caco-2 [12] = assay: as above
# HepG2 [13] = assay: as above
# U2OS [14] = assay: as above
# Calu-3 [15] = assay: as above
Structure (SMILES),relative viability EC50 (Vero E6 [1]) [µM],relative viability EC50 (Caco-2 [2]) [µM],relative viability EC50 (HepG2 [3]) [µM],relative viability EC50 (U2OS [4]) [µM],relative viability EC50 (Calu-3 [5]) [µM],drug sensitivity score (Vero E6 [6]),drug sensitivity score (Caco-2 [7]),drug sensitivity score (HepG2 [8]),drug sensitivity score (U2OS [9]),drug sensitivity score (Calu-3 [10]),cell viability (Vero E6 [11]; 1 nM) [%],cell viability (Vero E6 [11]; 10 nM) [%],cell viability (Vero E6 [11]; 100 nM) [%],cell viability (Vero E6 [11]; 1000 nM) [%],cell viability (Vero E6 [11]; 10000 nM) [%],cell viability (Caco-2 [12]; 1 nM) [%],cell viability (Caco-2 [12]; 10 nM) [%],cell viability (Caco-2 [12]; 100 nM) [%],cell viability (Caco-2 [12]; 1000 nM) [%],cell viability (Caco-2 [12]; 10000 nM) [%],cell viability (HepG2 [13]; 1 nM) [%],cell viability (HepG2 [13]; 10 nM) [%],cell viability (HepG2 [13]; 100 nM) [%],cell viability (HepG2 [13]; 1000 nM) [%],cell viability (HepG2 [13]; 10000 nM) [%],cell viability (U2OS [14]; 1 nM) [%],cell viability (U2OS [14]; 10 nM) [%],cell viability (U2OS [14]; 100 nM) [%],cell viability (U2OS [14]; 1000 nM) [%],cell viability (U2OS [14]; 10000 nM) [%],cell viability (Calu-3 [15]; 1 nM) [%],cell viability (Calu-3 [15]; 10 nM) [%],cell viability (Calu-3 [15]; 100 nM) [%],cell viability (Calu-3 [15]; 1000 nM) [%],cell viability (Calu-3 [15]; 10000 nM) [%]
"Cc1ccc(OC[C@@H](O)[C@H](C)NC(C)C)c2c1CCC2 (racemic) [ICI-118,551]",> 10,> 10,> 10,> 10,> 10,0,0,0,0,0,98.6,94.2,101,90.5,94.1,109,103,99.2,109,97.8,111,106,100,111,95.3,108,98.5,113,100,113,121,98.9,109,105,112
CN(C)c1cccc(-c2c3c(=O)n(-c4ccccc4Cl)[nH]c3cc(=O)n2C)c1,> 10,> 10,> 10,> 10,> 10,0,0.8,0,0,0,101,104,99.6,102,104,100,98.3,101,93.1,84.6,99.2,104,94.2,97.2,87.6,99.8,96.6,101,95.2,93.7,89.9,91.3,100,97.7,92.6
O=C(O)[C@H]1CC[C@H](c2cc3cccnc3c(-c3cccc(F)c3)n2)CC1,> 10,> 10,> 10,> 10,> 10,0.2,0,0,0,0,101,99.3,96.3,99,86.3,102,103,108,98,109,96.3,98.9,101,92.2,90.1,104,98.4,96.9,96.5,99.6,112,95.1,91.1,95,107
CCc1c(C(=O)Nc2cc(S(=O)(=O)N(CC)CC)ccc2O)[nH]c(C)c1C(C)=O [XD-14],> 10,> 10,> 10,> 10,> 10,0.2,0.7,0.5,0.1,0,96,102,89.5,91.5,95.9,101,93.5,97.2,98.8,80.8,96.8,106,116,97.6,84.6,99.3,93,95.6,100,87.4,111,89.2,104,103,108
Cc1ccc(-c2ccc(C)cn2)nc1 [abametapir],> 10,> 10,> 10,> 10,> 10,0,0,0,0,0,103,104,101,93.4,105,95.9,86.7,79.8,87,93.3,119,110,100,103,98.9,98.8,96.3,97.8,96.6,99,106,92.1,95.6,92.6,96.3
O=[N+]([O-])c1c(Nc2cc(F)cc(Cl)c2)ccc2nonc12 [TC-S-7009],> 10,> 10,> 10,> 10,> 10,0,0,0,0,0,102,102,96.4,99.5,95.8,99.2,96.3,97.2,95.9,92.9,93.1,103,95.3,85.7,94.5,100,106,97.9,105,95.9,102,98.1,104,106,104
Cc1cc2c(C(N)=O)cccc2n1-c1nc2c(c(NCc3ccccc3)n1)COCC2 [CB-5083],0.338,0.883,0.36,2.12,0.941,17.6,10.8,17.3,7.7,11.9,98.8,103,102,1.1,-0.4,97.8,92.8,103,50.1,13.6,107,95,104,2.8,-0.2,100,102,98.4,87.1,-0.3,101,94.3,104,47.1,1.7
CO/N=C(\C(=O)N[C@@H]1C(=O)N2C(C(=O)O)=C(CSc3nc(C)c(CC(=O)O)s3)CS[C@H]12)c1csc(N)n1 [cefodizime],> 10,> 10,> 10,> 10,> 10,0,0,0,0,0,93.3,95.8,89.4,99.6,106,89.2,89.8,105,100,89.3,88.6,105,98.8,97.3,103,96.1,95.5,99.4,97.7,98.9,98.9,93.5,89.3,86.3,96.8
O=C(NCCCN1CCOCC1)c1ccc(Cl)cc1 [eprobemide],> 10,> 10,> 10,> 10,> 10,0,0,0.5,0,0,92.1,96.3,100,99.1,99.6,106,92.3,108,103,98.8,108,107,88.6,110,76.6,102,92.7,103,97.4,99.5,105,87.6,105,92.2,103
CCCCCCCCCCCCCCCCCCCCCCCCCCCCO [1-octacosanol],> 10,> 10,> 10,> 10,> 10,0,0,0,0,0,95.5,98.5,96.7,95.6,104,95.4,85.8,97,91.8,95,103,109,97.6,116,102,97.6,96.5,102,96.2,96,99.1,105,102,95.5,96.1
O=C(O)c1ccc(N2C(=O)/C(=C/c3ccc(-c4ccc([N+](=O)[O-])cc4)o3)C=C2c2ccccc2)cc1 [4E1RCat],> 10,> 10,> 10,> 10,> 10,0,0.2,0,0,0,98.1,100,99,98.7,99.3,97.3,97.1,98.2,96.4,87.5,104,108,91.4,102,88.7,98.4,98.1,102,94.7,92.5,93.1,105,95.2,87.3,100
N#Cc1cc2nc(O)c(O)nc2cc1[N+](=O)[O-] [CNQX],> 10,> 10,> 10,> 10,> 10,0,0,0,0,0.4,100,100,104,94.8,95.2,99,96.1,99.8,97.5,94.6,99.4,94.7,99.1,98.3,99.5,97.9,101,97.9,104,96.8,95.9,101,106,97,85.8
